From US7728012B2, “Carboxamide compounds and their use as calpain inhibitors” (Abbott GmbH & Co. KG, priority 2006, dated 2010) come the findings set out here.

Format in all cases: biochemical
For test [1], the target named is T1, cathepsin B isolated from human liver (Homo sapiens, UniProt P07858).
T1 construct: cathepsin B—isolated from human liver; purchased Calbiochem 219362; host or cells: human liver (tissue isolate)
Description: Cathepsin B kinetic fluorescence enzyme inhibition assay. The following applies: selectivity ratio versus calpain I. A digest of the protocol: (§1)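 cat B 0.25 nM + Z-Phe-Arg-AMC 100 μM; cat L 1 nM + Z-Phe-Arg-AMC 2 μM; cat S 0.5 nM (E. coli-expressed) + Z-Val-Val-Arg-AMC 20 μM. 50 mM MES pH 6.0, 2.5 mM L-Cys, RT. Ex 390/em 460, kinetic; Ki app = Cheng-Prusoff from IC50, mean of 2–4 curves.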

For test [2], the target named is T2, cathepsin K activated from recombinant human procathepsin K (Homo sapiens, UniProt P43235).
T2 construct: purchased Calbiochem 342001; host or cells: E. coli
T2 sequence (P43235 115-329): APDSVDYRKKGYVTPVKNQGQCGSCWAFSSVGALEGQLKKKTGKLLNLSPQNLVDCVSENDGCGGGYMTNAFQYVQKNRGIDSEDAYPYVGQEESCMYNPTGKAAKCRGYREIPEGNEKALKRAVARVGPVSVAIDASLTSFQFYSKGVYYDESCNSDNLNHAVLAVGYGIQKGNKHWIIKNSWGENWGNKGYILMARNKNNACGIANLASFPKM
Description: Cathepsin K kinetic fluorescence enzyme inhibition assay. Conditions: selectivity ratio versus calpain I.

For test [3], the target named is T3, recombinant human cathepsin S (Homo sapiens, UniProt P25774).
T3 construct: purchased Calbiochem 219343; host or cells: E. coli
Description: Cathepsin S kinetic fluorescence enzyme inhibition assay. Conditions: selectivity ratio versus calpain I. A digest of the protocol: as §1

The target of test [4] is T4, cathepsin L isolated from human liver (Homo sapiens, UniProt P07711).
T4 construct: cathepsin L—isolated from human liver; purchased Calbiochem 219402; host or cells: human liver (tissue isolate)
Description: Cathepsin L kinetic fluorescence enzyme inhibition assay. Conditions: selectivity ratio versus calpain I. The gist of the method: as §1

The target of test [5] is T5, calpain-I isolated from human erythrocytes (Homo sapiens, UniProt P07384).
T5 construct: calpain-I—isolated from human erythrocytes; purchased Calbiochem 208713; host or cells: human erythrocytes (tissue isolate)
T5 sequence (P07384 1-714): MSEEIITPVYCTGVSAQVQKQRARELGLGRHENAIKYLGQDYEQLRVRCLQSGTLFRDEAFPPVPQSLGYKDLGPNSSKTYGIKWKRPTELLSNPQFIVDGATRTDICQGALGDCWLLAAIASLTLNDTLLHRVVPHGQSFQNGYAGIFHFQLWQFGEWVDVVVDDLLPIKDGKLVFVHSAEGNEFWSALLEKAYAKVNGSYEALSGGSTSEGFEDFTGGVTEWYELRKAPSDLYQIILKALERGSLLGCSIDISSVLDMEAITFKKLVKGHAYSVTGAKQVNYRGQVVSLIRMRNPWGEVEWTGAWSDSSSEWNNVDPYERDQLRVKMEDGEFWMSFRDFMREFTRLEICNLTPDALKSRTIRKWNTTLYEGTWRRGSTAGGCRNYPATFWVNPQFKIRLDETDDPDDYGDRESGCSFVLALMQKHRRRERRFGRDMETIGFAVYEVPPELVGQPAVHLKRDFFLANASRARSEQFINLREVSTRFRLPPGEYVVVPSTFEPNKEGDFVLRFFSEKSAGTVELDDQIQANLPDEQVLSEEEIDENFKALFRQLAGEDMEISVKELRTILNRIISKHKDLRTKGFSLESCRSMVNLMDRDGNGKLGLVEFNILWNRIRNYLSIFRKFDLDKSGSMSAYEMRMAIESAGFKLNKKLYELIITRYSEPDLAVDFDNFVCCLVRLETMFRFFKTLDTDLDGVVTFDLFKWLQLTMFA
T5 sequence (P04632 1-268 partner): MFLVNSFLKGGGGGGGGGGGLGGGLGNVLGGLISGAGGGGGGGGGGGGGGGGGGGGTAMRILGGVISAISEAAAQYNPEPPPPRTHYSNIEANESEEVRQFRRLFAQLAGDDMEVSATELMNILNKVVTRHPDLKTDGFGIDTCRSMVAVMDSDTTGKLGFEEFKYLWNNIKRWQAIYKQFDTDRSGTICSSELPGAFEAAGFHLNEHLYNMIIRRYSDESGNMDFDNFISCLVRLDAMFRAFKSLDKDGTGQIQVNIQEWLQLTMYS
Nature of the test: Calpain I kinetic fluorescence enzyme inhibition assay. Conditions: apparent Ki from IC50 by Cheng-Prussoff; average of 2 to 4 dose-effect plots.

Each structure is given as a SMILES string.

T3 sequence (P25774 115-331): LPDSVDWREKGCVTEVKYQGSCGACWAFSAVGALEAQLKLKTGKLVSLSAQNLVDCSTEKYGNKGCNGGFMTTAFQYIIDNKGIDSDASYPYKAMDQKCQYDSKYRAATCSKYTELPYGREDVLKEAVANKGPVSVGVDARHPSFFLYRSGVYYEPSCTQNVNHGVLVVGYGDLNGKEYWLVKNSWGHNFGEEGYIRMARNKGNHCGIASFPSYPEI
T4 sequence (P07711 114-333): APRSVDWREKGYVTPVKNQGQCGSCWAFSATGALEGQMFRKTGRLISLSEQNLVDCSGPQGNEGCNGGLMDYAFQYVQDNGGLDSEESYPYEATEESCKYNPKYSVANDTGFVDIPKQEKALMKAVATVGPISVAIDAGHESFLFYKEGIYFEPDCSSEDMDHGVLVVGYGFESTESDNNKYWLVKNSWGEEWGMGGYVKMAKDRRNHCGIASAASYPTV

In the case of `COc1ccc(CC(NC(=O)c2cccnc2-n2ccc(-c3ccc(F)cc3OC)n2)C(=O)C(N)=O)cc1` (centres unmarked) [Example 136, N-(3-Amino-1-{[4-(methyloxy)phenyl]methyl}-2,3-dioxopropyl)-2-{3-[4-fluoro-2-(methyloxy)phenyl]-1H-pyrazol-1-yl}pyridine-3-carboxamide], in test [1], the “Sel cat. B (Ki(cathepsin B)/Ki(calpain) ratio)” value is “++ (Ki(cathepsin B)/Ki(calpain) ratio of ≧30)”. Also, in test [2], the “Sel cat. K (Ki(cathepsin K)/Ki(calpain) ratio)” value is “++ (Ki(cathepsin K)/Ki(calpain) ratio of ≧30)”. Further, the “Sel cat. S (Ki(cathepsin S)/Ki(calpain) ratio)” value in test [3] is “++ (Ki(cathepsin S)/Ki(calpain) ratio of ≧100)”. Further, in test [4], the “Sel cat. L (Ki(cathepsin L)/Ki(calpain) ratio)” value was “++ (Ki(cathepsin L)/Ki(calpain) ratio of ≧50)”. Also, the Ki in test [5] was not above 40 nM.

With `COc1ccc(CC(NC(=O)c2cccnc2-n2ccc(-c3ccc4c(c3)OC(F)(F)O4)n2)C(=O)C(N)=O)cc1` (centres unmarked) [Example 137, N-(3-Amino-1-{[4-(methyloxy)phenyl]methyl}-2,3-dioxopropyl)-2-[3-(2,2-difluoro-1,3-benzodioxol-5-yl)-1H-pyrazol-1-yl]pyridine-3-carboxamide], the “Sel cat. B (Ki(cathepsin B)/Ki(calpain) ratio)” value in test [1] was “+ (10≦Ki(cathepsin B)/Ki(calpain)<30)”. The “Sel cat. K (Ki(cathepsin K)/Ki(calpain) ratio)” value in test [2] is listed as “+ (10≦Ki(cathepsin K)/Ki(calpain)<30)”. Moreover, the “Sel cat. S (Ki(cathepsin S)/Ki(calpain) ratio)” value in test [3] is “++ (Ki(cathepsin S)/Ki(calpain) ratio of ≧100)”. Moreover, the “Sel cat. L (Ki(cathepsin L)/Ki(calpain) ratio)” value in test [4] is recorded as “++ (Ki(cathepsin L)/Ki(calpain) ratio of ≧50)”. In addition, the Ki in test [5] was 40 to 100 nM.

Consider `COc1cc(Cl)ccc1-c1ccn(-c2ncccc2C(=O)NC(Cc2ccccc2)C(=O)C(N)=O)n1` (centres unmarked) [Example 139, N-[3-Amino-2,3-dioxo-1-(phenylmethyl)propyl]-2-{3-[4-chloro-2-(methyloxy)phenyl]-1H-pyrazol-1-yl}pyridine-3-carboxamide], for which, in test [1], the “Sel cat. B (Ki(cathepsin B)/Ki(calpain) ratio)” value is “+ (10≦Ki(cathepsin B)/Ki(calpain)<30)”. For the same compound, in test [2], the “Sel cat. K (Ki(cathepsin K)/Ki(calpain) ratio)” value is “++ (Ki(cathepsin K)/Ki(calpain) ratio of ≧30)”. Besides, the “Sel cat. S (Ki(cathepsin S)/Ki(calpain) ratio)” value in test [3] was “++ (Ki(cathepsin S)/Ki(calpain) ratio of ≧100)”. The “Sel cat. L (Ki(cathepsin L)/Ki(calpain) ratio)” value in test [4] is “++ (Ki(cathepsin L)/Ki(calpain) ratio of ≧50)”. The Ki in test [5] fell in the range of 40 to 100 nM.

Take `NC(=O)C(=O)C(Cc1ccccc1)NC(=O)c1cccnc1-n1cc2c(n1)-c1cc(Cl)ccc1OC2` (centres unmarked) [Example 140, N-[3-Amino-2,3-dioxo-1-(phenylmethyl)propyl]-2-(8-chlorochromeno[4,3-c]pyrazol-2(4H)-yl)pyridine-3-carboxamide]: the “Sel cat. B (Ki(cathepsin B)/Ki(calpain) ratio)” value in test [1] is “+ (10≦Ki(cathepsin B)/Ki(calpain)<30)”. Moreover, the “Sel cat. K (Ki(cathepsin K)/Ki(calpain) ratio)” value in test [2] is on record as “++ (Ki(cathepsin K)/Ki(calpain) ratio of ≧30)”. Further, in test [3], the “Sel cat. S (Ki(cathepsin S)/Ki(calpain) ratio)” value is recorded as “++ (Ki(cathepsin S)/Ki(calpain) ratio of ≧100)”. Also, in test [4], the “Sel cat. L (Ki(cathepsin L)/Ki(calpain) ratio)” value is recorded as “++ (Ki(cathepsin L)/Ki(calpain) ratio of ≧50)”. Besides, the Ki in test [5] is not above 40 nM.

As for `COc1ccc2c(c1)OCc1cn(-c3ncccc3C(=O)NC(Cc3ccccc3)C(=O)C(N)=O)nc1-2` (centres unmarked) [Example 142, N-[3-Amino-2,3-dioxo-1-(phenylmethyl)propyl]-2-[7-(methyloxy)chromeno[4,3-c]pyrazol-2(4H)-yl]pyridine-3-carboxamide], in test [1], the “Sel cat. B (Ki(cathepsin B)/Ki(calpain) ratio)” value is “+ (10≦Ki(cathepsin B)/Ki(calpain)<30)”. Also, the “Sel cat. K (Ki(cathepsin K)/Ki(calpain) ratio)” value in test [2] was “+ (10≦Ki(cathepsin K)/Ki(calpain)<30)”. In addition, the “Sel cat. S (Ki(cathepsin S)/Ki(calpain) ratio)” value in test [3] is on record as “++ (Ki(cathepsin S)/Ki(calpain) ratio of ≧100)”. For the same compound, the “Sel cat. L (Ki(cathepsin L)/Ki(calpain) ratio)” value in test [4] is reported as “++ (Ki(cathepsin L)/Ki(calpain) ratio of ≧50)”. For the same compound, in test [5], the Ki is not above 40 nM.

For `Cc1c(Cl)ccc2c1-c1nn(-c3ncccc3C(=O)NC(Cc3ccccc3)C(=O)C(N)=O)cc1CO2` (centres unmarked) [Example 143, N-[3-Amino-2,3-dioxo-1-(phenylmethyl)propyl]-2-(8-chloro-9-methylchromeno[4,3-c]pyrazol-2(4H)-yl)pyridine-3-carboxamide], the “Sel cat. B (Ki(cathepsin B)/Ki(calpain) ratio)” value in test [1] was “++ (Ki(cathepsin B)/Ki(calpain) ratio of ≧30)”. Moreover, in test [2], the “Sel cat. K (Ki(cathepsin K)/Ki(calpain) ratio)” value is listed as “++ (Ki(cathepsin K)/Ki(calpain) ratio of ≧30)”. Besides, the “Sel cat. S (Ki(cathepsin S)/Ki(calpain) ratio)” value in test [3] is listed as “++ (Ki(cathepsin S)/Ki(calpain) ratio of ≧100)”. In test [4], the “Sel cat. L (Ki(cathepsin L)/Ki(calpain) ratio)” value is “++ (Ki(cathepsin L)/Ki(calpain) ratio of ≧50)”. For the same compound, the Ki in test [5] lay within 40 to 100 nM.

Turning to `NC(=O)C(=O)C(Cc1ccc(F)cc1)NC(=O)c1cccnc1-n1ccc(-c2ccccc2OC(F)(F)F)n1` (centres unmarked) [Example 152, N-{3-Amino-1-[(4-fluorophenyl)methyl]-2,3-dioxopropyl}-2-(3-{2-[(trifluoromethyl)oxy]phenyl}-1H-pyrazol-1-yl)pyridine-3-carboxamide], the “Sel cat. B (Ki(cathepsin B)/Ki(calpain) ratio)” value in test [1] is listed as “++ (Ki(cathepsin B)/Ki(calpain) ratio of ≧30)”. Further, the “Sel cat. K (Ki(cathepsin K)/Ki(calpain) ratio)” value in test [2] was “++ (Ki(cathepsin K)/Ki(calpain) ratio of ≧30)”. For the same compound, the “Sel cat. S (Ki(cathepsin S)/Ki(calpain) ratio)” value in test [3] was “++ (Ki(cathepsin S)/Ki(calpain) ratio of ≧100)”. In addition, the “Sel cat. L (Ki(cathepsin L)/Ki(calpain) ratio)” value in test [4] is reported as “++ (Ki(cathepsin L)/Ki(calpain) ratio of ≧50)”. The Ki in test [5] is not above 40 nM.

With `COc1ccc(CC(NC(=O)c2cccnc2-n2ccc(-c3cccc(Cl)c3Cl)n2)C(=O)C(N)=O)cc1` (centres unmarked) [Example 153, N-(3-Aamino-1-{[4-(methyloxy)phenyl]methyl}-2,3-dioxopropyl)-2-[3-(2,3-dichlorophenyl)-1H-pyrazol-1-yl]pyridine-3-carboxamide], in test [1], the “Sel cat. B (Ki(cathepsin B)/Ki(calpain) ratio)” value is “++ (Ki(cathepsin B)/Ki(calpain) ratio of ≧30)”. Besides, in test [2], the “Sel cat. K (Ki(cathepsin K)/Ki(calpain) ratio)” value is recorded as “++ (Ki(cathepsin K)/Ki(calpain) ratio of ≧30)”. Besides, the “Sel cat. S (Ki(cathepsin S)/Ki(calpain) ratio)” value in test [3] was “++ (Ki(cathepsin S)/Ki(calpain) ratio of ≧100)”. Moreover, in test [4], the “Sel cat. L (Ki(cathepsin L)/Ki(calpain) ratio)” value was “++ (Ki(cathepsin L)/Ki(calpain) ratio of ≧50)”. Also, in test [5], the Ki is not above 40 nM.

In the case of `NC(=O)C(=O)C(Cc1ccccc1)NC(=O)c1cccnc1-n1ccc(-c2cccc(C(F)(F)F)c2Cl)n1` (centres unmarked) [Example 155, N-[3-Amino-2,3-dioxo-1-(phenylmethyl)propyl]-2-{3-[2-chloro-3-(trifluoromethyl)phenyl]-1H-pyrazol-1-yl}pyridine-3-carboxamide], in test [1], the “Sel cat. B (Ki(cathepsin B)/Ki(calpain) ratio)” value is “++ (Ki(cathepsin B)/Ki(calpain) ratio of ≧30)”. In test [2], the “Sel cat. K (Ki(cathepsin K)/Ki(calpain) ratio)” value is listed as “++ (Ki(cathepsin K)/Ki(calpain) ratio of ≧30)”. In addition, in test [3], the “Sel cat. S (Ki(cathepsin S)/Ki(calpain) ratio)” value is on record as “++ (Ki(cathepsin S)/Ki(calpain) ratio of ≧100)”. Further, the “Sel cat. L (Ki(cathepsin L)/Ki(calpain) ratio)” value in test [4] is “++ (Ki(cathepsin L)/Ki(calpain) ratio of ≧50)”. Further, the Ki in test [5] is 40 to 100 nM.

In the case of `COc1ccc(CC(NC(=O)c2cccnc2-n2ccc(-c3cccc(F)c3Cl)n2)C(=O)C(N)=O)cc1` (centres unmarked) [Example 157, N-(3-Amino-1-{[4-(methyloxy)phenyl]methyl}-2,3-dioxopropyl)-2-[3-(2-chloro-3-fluorophenyl)-1H-pyrazol-1-yl]pyridine-3-carboxamide], in test [1], the “Sel cat. B (Ki(cathepsin B)/Ki(calpain) ratio)” value is “++ (Ki(cathepsin B)/Ki(calpain) ratio of ≧30)”. For the same compound, the “Sel cat. K (Ki(cathepsin K)/Ki(calpain) ratio)” value in test [2] is recorded as “++ (Ki(cathepsin K)/Ki(calpain) ratio of ≧30)”. The “Sel cat. S (Ki(cathepsin S)/Ki(calpain) ratio)” value in test [3] is recorded as “++ (Ki(cathepsin S)/Ki(calpain) ratio of ≧100)”. Besides, in test [4], the “Sel cat. L (Ki(cathepsin L)/Ki(calpain) ratio)” value is listed as “++ (Ki(cathepsin L)/Ki(calpain) ratio of ≧50)”. Moreover, the Ki in test [5] was not above 40 nM.
